These results are taken from US6355653B1, “Amino-triazolopyridine derivatives” (Hoffmann-La Roche Inc., priority 1999, dated 2002).

T1 sequence (P29274 whole entry): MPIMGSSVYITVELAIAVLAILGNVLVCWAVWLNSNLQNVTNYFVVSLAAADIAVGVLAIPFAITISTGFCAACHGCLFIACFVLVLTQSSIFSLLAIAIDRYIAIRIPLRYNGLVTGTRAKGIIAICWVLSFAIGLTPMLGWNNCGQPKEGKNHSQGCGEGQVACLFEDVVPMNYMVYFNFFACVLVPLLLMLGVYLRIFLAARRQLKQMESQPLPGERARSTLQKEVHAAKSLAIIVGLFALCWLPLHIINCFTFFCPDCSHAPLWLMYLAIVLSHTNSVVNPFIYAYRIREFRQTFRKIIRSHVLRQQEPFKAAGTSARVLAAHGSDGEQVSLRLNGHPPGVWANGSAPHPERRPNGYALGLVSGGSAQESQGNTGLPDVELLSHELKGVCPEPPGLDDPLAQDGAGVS

One series has as its target T1, human adenosine A2A receptor (Homo sapiens, UniProt P29274).
T1 construct: expressed in transfected cells; host or cells: CHO cells, Semliki Forest virus expression system; washed membrane preparation
As to the kind of experiment: [3H]-SCH-58261 binding assay at the human adenosine A2A receptor. Particulars: [3H]-SCH-58261 (1 nM), membranes of CHO cells recombinantly expressing the human A2A receptor; Ki by Cheng-Prussoff; read-out: hA2ApKi (converted). Here is the method: Human Adenosine A2A Receptor
The human adenosine A2A receptor was recombinantly expressed in chinese hamster ovary (CHO) cells using the semliki forest virus expression system. Cells were harvested, washed twice by centrifugation, homogenised and again washed by centrifugation. The final washed membrane pellet was suspended in a Tris (50 mM) buffer containing 120 mM NaCl, […] and 10 mM MgCl2 (pH 7.4) (buffer A). The [^3H]-SCH-58261 (Dionisotti et al., 1997, Br J Pharmacol 121, 353; 1 nM) binding assay was carried out in 96-well plates in the presence of 2.5 μg of membrane protein, 0.5 mg of Ysi-poly-1-lysine SPA beads io and 0.1U adenosine deaminase in a final volume of 200 μl of buffer A. Non-specific binding was defined using xanthine amine congener (XAC; 2 μM). Compounds were tested at 10 concentrations from 10 μM-0.3 nM. All assays were conducted in duplicate and repeated at least two times. Assay plates were incubated for lhour at room temperature before centrifugation and then bound ligand determined using a Packard Topcount scintillation counter. IC50 values were calculated using a non-linear curve fitting program and Ki values calculated using the Cheng-Prussoff equation.
With `Nc1cc(-c2cccc(F)c2)cc2nc(C3=CCCO3)nn12` [2-(4,5-Dihydro-furan-2-yl)-7-(3-fluoro-phenyl)-[1,2,4]triazolo[1,5-a]pyridin-5-ylamine], the Ki is 25.1 nM.

As for `Cc1cccc(-c2cc(N)n3nc(C4=CCCO4)nc3c2)c1` [2-(4,5-Dihydro-furan-2-yl)-7-m-tolyl-[1,2,4]triazolo[1,5-a]pyridin-5-ylamine], the Ki is 31.6 nM.

For `COc1ccc(-c2cc(N)n3nc(-c4ccco4)nc3c2)cn1` [2-Furan-2-yl-7-(6-methoxy-pyridin-3-yl)-[1,2,4]triazolo[1,5-a]pyridin-5-ylamine], the Ki was 12.6 nM.

Regarding `Cc1cccc(-c2cc(N)n3nc(-c4ccco4)nc3c2)c1` [2-Furan-2-yl-7-m-tolyl-[1,2,4]triazolo[1,5-a]pyridin-5-ylamine], the Ki is 10 nM.

As for `CCc1cc(-c2cc(N)n3nc(-c4ccccn4)nc3c2)ccn1` [7-(2-Ethyl-pyridin-4-yl)-2-pyridin-2-yl-[1,2,4]triazolo[1,5-a]pyridin-5-ylamine], the Ki is 7.94 nM.

For `Nc1cc(-c2ccnc(F)c2)cc2nc(-c3ccco3)nn12` [7-(2-Fluoro-pyridin-4-yl)-2-furan-2-yl-[1,2,4]triazolo[1,5-a]pyridin-5-ylamine], the Ki was 15.8 nM.

Turning to `Cc1cc(-c2cc(N)n3nc(-c4ccccn4)nc3c2)ccn1` [7-(2-Methyl-pyridin-4-yl)-2-pyridin-2-yl-[1,2,4]triazolo[1,5-a]pyridin-5-ylamine], the Ki is 31.6 nM.

With `Nc1cc(-c2ccc(Cl)c(Cl)c2)cc2nc(C3=CCCO3)nn12` [7-(3,4-Dichloro-phenyl)-2-(4,5-dihydro-furan-2-yl)-[1,2,4]triazolo[1,5-a]pyridin-5-ylamine], the Ki was 7.94 nM.

For the molecule `COc1ccc(-c2cc(N)n3nc(-c4ccco4)nc3c2)cc1OC` [7-(3,4-Dimethoxy-phenyl)-2-furan-2-yl-[1,2,4]triazolo[1,5-a]pyridin-5-ylamine], the Ki is 25.1 nM.

Tested on in another series: not given
Assay: not given
Conditions: not given
On to `Nc1cc(-c2cc(Cl)cc(Cl)c2)cc2nc(-c3ccco3)nn12` [Example 5, 7-(3,5-Dichloro-phenyl)-2-furan-2-yl-[1,2,4]triazolo[1,5-a]pyridin-5-ylamine], for which the melting point fell in the range of 257 to 260 °C.

With `Cc1cc(-c2cc(N)n3nc(-c4ccco4)nc3c2)ccn1` [Example 7, 2-Furan-2-yl-7-(2-methyl-pyridin-4-yl)-[1,2,4]triazolo[1,5-a]pyridin-5-ylamine], the melting point was 100 to 101 °C.

The molecule `CCc1cc(-c2cc(N)n3nc(-c4ccco4)nc3c2)ccn1` [Example 8, 7-(2-Ethyl-pyridin-4-yl)-2-furan-2-yl-[1,2,4]triazolo[1,5-a]pyridin-5-ylamine] gave a melting point of 184 to 186 °C.

For the molecule `Cc1cc(-c2nc3cc(-c4ccncc4)cc(N)n3n2)oc1C` [Example 16, 2-(4,5-Dimethyl-furan-2-yl)-7-pyridin-4-yl-[1,2,4]triazolo[1,5-a]pyridin-5-ylamine], the melting point was in the range of 275 to 277 °C.

`Nc1cc(-c2ccncc2)cc2nc(-c3ccccc3)nn12` [Example 22, 2-Phenyl-7-pyridin-4-yl-[1,2,4]triazolo[1,5-a]pyridin-5-ylamine]: the melting point lay in the range of 207 to 210 °C.

In the case of `Nc1cc(-c2ccccn2)cc2nc(-c3ccccc3)nn12` [Example 23, 2-Phenyl-7-pyridin-2-yl-[1,2,4]triazolo[1,5-a]pyridin-5-ylamine], the melting point was 278 to 280 °C.

Consider `Nc1cc(-c2cccnc2)cc2nc(-c3ccccc3)nn12` [Example 24, 2-Phenyl-7-pyridin-3-yl-[1,2,4]triazolo[1,5-a]pyridin-5-ylamine], for which the melting point fell in the range of 201 to 203 °C.

In the case of `Nc1cc(-c2ccccc2)cc2nc(-c3ccccc3)nn12` [Example 25, 2,7-Diphenyl-[1,2,4]triazolo[1,5-a]pyridin-5-ylamine], the melting point lay within 214 to 216 °C.

Broadly, the melting point is the temperature, or range, at which the solid turns liquid.
